In one data set the target is T1, CYP2C19 (Homo sapiens, UniProt P33261).
T1 construct: from tissue; host or cells: human liver microsomes
Description: Cytochrome P450 isozyme inhibitory activity test, CYP2C19. Format: in vitro ADME. Conditions: liver microsomes; human liver microsome. The procedure:
(§1) The inhibitory activities of the test compound on different subtypes of human cytochrome P450 isozymes were determined. The test compound, standard inhibitor (100× final concentration), and a mixed substrate working solution were prepared; the microsome frozen in −80° C. refrigerator was thawed. […]

The target of another data set is T2, CYP1A2 (Homo sapiens, UniProt P05177).
T2 construct: from tissue; host or cells: human liver microsomes
T2 sequence (P05177 1-516): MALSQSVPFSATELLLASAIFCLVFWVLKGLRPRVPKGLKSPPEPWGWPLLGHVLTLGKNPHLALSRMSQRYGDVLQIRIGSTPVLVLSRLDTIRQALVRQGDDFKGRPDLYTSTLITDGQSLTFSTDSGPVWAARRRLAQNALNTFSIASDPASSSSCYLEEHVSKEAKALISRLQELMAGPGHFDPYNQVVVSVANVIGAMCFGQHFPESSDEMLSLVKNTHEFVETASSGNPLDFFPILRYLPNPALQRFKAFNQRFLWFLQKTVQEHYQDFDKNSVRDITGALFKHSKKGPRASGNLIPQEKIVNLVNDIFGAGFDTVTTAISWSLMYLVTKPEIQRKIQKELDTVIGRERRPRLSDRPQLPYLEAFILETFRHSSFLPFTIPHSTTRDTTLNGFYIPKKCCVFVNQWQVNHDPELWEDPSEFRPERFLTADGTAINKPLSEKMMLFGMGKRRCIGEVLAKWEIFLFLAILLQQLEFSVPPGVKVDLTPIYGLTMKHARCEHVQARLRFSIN
Description: Cytochrome P450 isozyme inhibitory activity test, CYP1A2. Format: in vitro ADME. As to conditions: liver microsomes; human liver microsome. The method, then: as §1
A general note: Microsomes from liver hold many membrane-bound enzymes, among them those of drug oxidation.

The nature of data set [1]: In vivo pharmacokinetic study in beagle dogs after single administration. As to conditions: male, dog, plasma, 2 mg/kg, 2 mpk intravenous injection. The procedure:
Male beagle dogs were used as test animals, the concentration of the compound in blood after single administration was determined to evaluate the pharmacokinetic behavior.
Beagle dogs (Male, 6-12 kg, more than 6 months, Beijing Marshall Biotechnology Co., Ltd.).
The objective of the test was to study the pharmacokinetic characteristics of the test compound in non-rodent after intravenous injection and oral administration. In the experiment, the test compound was prepared into a clear solution or homogeneous suspension and administered to the beagle dogs by single intravenous injection or oral administration. In the intravenous injection group, the menstruum was a certain proportion of dimethyl sulfoxide in HP-β-cyclodextrin solution or a certain proportion of ethanol, polyethylene glycol 400 and physiological saline solution, the mixture was vortexed and subjected to ultrasonic treatment to prepare 2 mg/mL clear solution, then filtered with microporous membrane for later use; in the oral administration group, the menstruum was a certain proportion of dimethyl sulfoxide in HP-β-cyclodextrin solution or a certain proportion of sodium carboxymethyl cellulose solution, the test compound was mixed with the menstruum, vortexed and subjected to ultrasonic treatment to prepare 2 mg/mL homogeneous suspension for later use. After 2 mg/kg intravenous administration or 10 mg/kg oral administration to the Beagle dogs, a certain amount of whole blood samples were collected, centrifuged at 3000 g for 10 minutes, and the supernatant was separated to obtain plasma samples; then an acetonitrile solution containing internal standard with a volume 10 times that of the plasma sample was added to precipitate proteins, and then centrifuged; the supernatant was separated for analysis; LC-MS/MS analysis method was used to quantitatively analyze the blood drug concentration, and Phoenix WinNonlin software (Pharsight, USA) was used to calculate the pharmacokinetic parameters, such as peak concentration, time to peak concentration, clearance rate, half-life, area under the concentration-time curve, bioavailability, etc.
(§2) Among them, C0 is the initial concentration, T1/2 is the elimination half-life, Vdss is the steady-state apparent volume of distribution, Cl is the total clearance rate, AUC0-inf is the area under the plasma drug concentration-time curve from time 0 to infinity, Cmax is the peak concentration, Tmax is the time to peak concentration.

The next data set concerns the target T3, CYP2D6 (Homo sapiens, UniProt P10635).
T3 construct: from tissue; host or cells: human liver microsomes
The data set is described as follows: Cytochrome P450 isozyme inhibitory activity test, CYP2D6. Type of data set: in vitro ADME. Conditions: liver microsomes; human liver microsome. The method, then:
as §1

Data set [2] is described as follows: In vivo pharmacokinetic study in rats after single administration. Conditions: male, Sprague Dawley, rat, plasma, 2 mg/kg, 2 mpk intravenous injection. The method, then: Male SD rats were used as test animals, and the concentration of the compound in blood was determined after single administration to evaluate the pharmacokinetic behavior.
Sprague Dawley rats (male, 200-300 g, 7-9 weeks, Shanghai Charles River Laboratory Animal Co., Ltd.)
The pharmacokinetic characteristics of the test compound in rodents after intravenous injection and oral administration were tested by standard protocols, in the experiment, the test compound was prepared into a clear solution or homogeneous suspension, and administered to the rats by single intravenous injection and oral administration. In the intravenous injection group, the menstruum was a certain proportion of ethanol and physiological saline solution or a certain proportion of dimethyl sulfoxide in HP-β cyclodextrin solution (the pH was adjusted to 3-4), the mixture was vortexed and stirred to prepare 1 mg/mL clear solution, then filtered with microporous membrane for later use; in the oral administration group, the menstruum was a certain proportion of sodium carboxymethyl cellulose solution or a certain proportion of dimethyl sulfoxide in HP-β cyclodextrin solution (the pH was adjusted to about 4), after the test compound was mixed with the solvent, the mixture was vortexed and stirred to prepare 30 mg/mL homogeneous suspension for later use. After 2 mg/kg intravenous administration or 300 mg/kg oral administration to rats, a certain amount of whole blood samples were collected, centrifuged at 3000 g for 15 minutes, the supernatant was separated to obtain the plasma samples; then an acetonitrile solution containing internal standard with a volume 3 times that of the plasma sample was added to precipitate proteins, and then centrifuged; the supernatant was separated, and water with a volume twice that of the supernatant was added to the supernatant, which was then centrifuged again; the supernatant was collected for analysis; LC-MS/MS analysis method was used to quantitatively analyze the blood drug concentration, and Phoenix WinNonlin software (Pharsight, USA) was used to calculate the pharmacokinetic parameters, such as peak concentration, time to peak concentration, clearance rate, half-life, area under the concentration-time curve, bioavailability, etc.
as §2

T1 sequence (P33261 whole entry): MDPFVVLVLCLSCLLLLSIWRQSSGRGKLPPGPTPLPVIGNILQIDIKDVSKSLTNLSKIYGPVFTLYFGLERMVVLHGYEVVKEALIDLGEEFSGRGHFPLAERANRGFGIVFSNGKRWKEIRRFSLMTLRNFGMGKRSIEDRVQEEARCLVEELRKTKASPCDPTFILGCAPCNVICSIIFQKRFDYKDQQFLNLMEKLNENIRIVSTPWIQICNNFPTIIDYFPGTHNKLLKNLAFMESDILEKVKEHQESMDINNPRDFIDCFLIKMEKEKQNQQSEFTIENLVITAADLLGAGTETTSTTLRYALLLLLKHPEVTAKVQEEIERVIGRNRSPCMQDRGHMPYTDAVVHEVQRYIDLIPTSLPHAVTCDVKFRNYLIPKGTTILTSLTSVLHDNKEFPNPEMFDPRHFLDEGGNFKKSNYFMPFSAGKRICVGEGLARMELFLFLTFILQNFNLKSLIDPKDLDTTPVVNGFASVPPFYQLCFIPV
T3 sequence (P10635 whole entry): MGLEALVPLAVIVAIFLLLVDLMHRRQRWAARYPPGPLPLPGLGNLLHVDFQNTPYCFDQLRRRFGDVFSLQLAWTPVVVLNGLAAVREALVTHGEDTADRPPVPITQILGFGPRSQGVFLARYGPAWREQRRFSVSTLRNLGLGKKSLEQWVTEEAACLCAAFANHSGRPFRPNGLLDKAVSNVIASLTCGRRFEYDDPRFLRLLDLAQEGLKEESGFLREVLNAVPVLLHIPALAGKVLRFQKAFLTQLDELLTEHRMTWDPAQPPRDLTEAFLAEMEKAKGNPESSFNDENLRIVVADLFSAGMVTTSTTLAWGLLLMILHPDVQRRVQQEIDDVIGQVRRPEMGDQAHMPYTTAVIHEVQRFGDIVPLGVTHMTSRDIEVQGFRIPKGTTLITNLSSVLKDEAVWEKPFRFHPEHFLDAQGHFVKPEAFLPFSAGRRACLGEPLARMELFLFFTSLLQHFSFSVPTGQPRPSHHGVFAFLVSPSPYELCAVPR

A word on the IC50: it is the concentration needed to halve the response being measured. A high value points to a need for much substance. For orientation: AUC(0-inf) means total exposure, with the tail of the curve extrapolated. A higher AUC(0-inf) goes with high exposure. In general, clearance refers to the volume of plasma or blood freed of the substance per unit of time. High values mean a high capacity for elimination, low ones a low capacity for elimination. Usually half-life stands for how long it takes for the measured level to halve. A lower half-life goes with rapid decline. Regarding `COCCN1C[C@@H](n2ccc(F)c2)[C@H](NC(=O)Nc2c(C)c(-c3cnc(C4(F)COC4)nc3)nn2-c2ccccc2)C1` [Compound of formula (I)], the IC50 at 10 min is above 50 µM against CYP2C19, above 50 µM against CYP1A2 and 40.6 µM at CYP2D6. Further, the results for the area under the curve AUC(0-inf) in data set [1] and in data set [2] were 4.66 µM·h and 2.61 µM·h, respectively. Also, the values for the C0 in data set [1] and in data set [2] were 8.46 µM and 5.38 µM, respectively. Moreover, the clearance in data set [1] was 12.4 mL/min/kg; in data set [2] it was 22.4 mL/min/kg. The half-life is 26.4 min in data set [1] and 33 min in data set [2]. Also, the Vd in data set [1] (read-out: Vdss) came out at 0.49 L/kg; in data set [2] (read-out: Vdss), 0.81 L/kg.

The values are drawn from patent US11708357B2, “Crystal form of pyrrolidinyl urea derivative and application thereof” (ZHANGZHOU PIEN TZE HUANG PHARMACEUTICAL CO., LTD., priority 2020, dated 2023).
